Experimental data as given in ChEMBL document CHEMBL1153129, “Multiple bond-conjugated photoinduced nitric oxide releaser working with two-photon excitation” (Bioorg Med Chem Lett, 2010).

Experiments:
[1] = Induction of NO release per molar ratio of compound at 250 uM irradiated with 400 to 440 nm light in presence of Fe-DETC complex by ESR spectrometry; assay type: physicochemical
[2] = Induction of NO release per molar ratio of compound at 250 uM irradiated with 450 to 480 nm light in presence of Fe-DETC complex by ESR spectrometry; assay type: physicochemical

| Structure (SMILES) | Activity [1] | Activity [2] |
| --- | --- | --- |
| COc1cc(/C=C/c2cc(C)c([N+](=O)[O-])c(C)c2)c(OC)cc1C#CC#Cc1cc(OC)c(/C=C/c2cc(C)c([N+](=O)[O-])c(C)c2)cc1OC | 9.7% | – |
| COc1cc(/C=C/c2cc(OC)c(/C=C/c3cc(C)c([N+](=O)[O-])c(C)c3)cc2OC)c(OC)cc1/C=C/c1cc(C)c([N+](=O)[O-])c(C)c1 | 1% | 0.86% |
| COc1cc(/C=C/c2cc(C)c([N+](=O)[O-])c(C)c2)c(OC)cc1C#Cc1cc(OC)c(/C=C/c2cc(C)c([N+](=O)[O-])c(C)c2)cc1OC | 9.2% | – |
| COc1cc(/C=C/c2cc(C)c([N+](=O)[O-])c(C)c2)c(OC)cc1/C=C/C=C/c1cc(OC)c(/C=C/c2cc(C)c([N+](=O)[O-])c(C)c2)cc1OC | 0.96% | 0.54% |
